No end group written: not given here.
Columns and labels:
[1] = system: S. mutans UA159 infection of teeth; assay: In vivo rodent model simulating severe childhood caries; design: species or system Sprague-Dawley rat pups; conditions: for body weights vs control: after 35 days of topical treatment, 100 μM; for H&E staining of gingival, palatal and gastric tissues: caries study, Figure S12
From the text: For each patient, written permission form was reviewed and signed. […]
In vivo rodent model simulating severe childhood caries. All the animal studies were approved by the Institutional Animal Care and Use Committee (IACUC) of Hunan Normal University, and the National Institutes of Health guidelines for the performance of animal experiments were followed. 15 days -old female Sprague– Dawley rat pups were purchased with their dams from Slac & Jingda Corporation of laboratory animals, Changsha, China. All animals should be checked for the pathogen […]
infections especially for the S.mutans by plating oral swabs on mitis salivarius agar plus bacitracin. The animals were then infected by mouth with S. mutans UA159 (mid-logarithmic) 4 times (once a day) by pipetting 0.1 mL of a cell suspension containing 2 × 10^8 colony-forming units into their mouths. When the infection was confirmed, all the pups were randomly placed into three treatment groups, and their teeth were treated topically once a day for a total 35 days using the swabs plus modified syringe. The concentration of CHX and pHly -1 NPs was 100 μM and the volume was 300 μ L. The three treatment groups were: (1) control (PBS, pH 4.5); (2) CHX (100 μ M, dissolve in PBS, pH 4.5); (3) pHly -1 NPs (100 μM, dissolve in PBS, pH 4.5). Each group was provided the National Institutes of Health cariogenic diet 2000 and water containing 5% sucrose. After 35 days of treatment, all animals were sacrificed and jaws were collected according the literature . Determination of caries score of the jaws was performed by a calibrated examiner who was blind for the study by using codified samples according to Lar son’s modification of Keyes’ system 11 -13. […]
The fragments were washed thoroughly, then digested and centrifuged to obtain cell pellet. The resulting pellet was resuspended in ice-cold 70 % BME for incubating 15 min and then the organoid medium was added. The composition of oral and gastric organoid medium was as follows:
Human oral organoid medium contains Advanced Dulbecco’s Modified Eagle’s Medium/F12 supplemented with penicillin/streptomycin, 10 mM HEPES, 2 mM GlutaMAX, 1×B27 supplement (Life Technologies), 1.25 mM N -acetyl-l-cysteine (Sigma-Aldrich), 10 mM Nicotinamide (Sigma-Aldrich), 50 ng/mL human EGF (PeproTech), 500 nM A83- 01(Tocris Bioscience), 10 ng/mL human FGF10
(PeproTech), 5 ng/mL human FGF2 (PeproTech), 1 μM Prostaglandin E2 (Tocris Bioscience), 3 μM CHIR 99021 (Sigma -Aldrich), 1μM Foskolin, 100 μg/mL […]
(§1) Human gastric organoid medium contains Advanced Dulbecco’s Modified Eagle’s […]
GlutaMAX,1×B27 supplement (Life Technologies), 50 ng/mL human EGF
(PeproTech), 200 ng/mL human FGF10 (PeproTech), 1.25 mM N-acetyl-l-cysteine (Sigma-Aldrich), 10 nM Gastin-l, 500 nM A83- 01 (Tocris Bioscience), 10 μM […]
Prostaglandin E2 (Tocris Bioscience), 100 ng/mL human recombinant IGF-1 (Bio Legend), 3 μM CHIR 99021 (Sigma-Aldrich), 10 mM Nicotinamide (Sigma-Aldrich).
For the organoid toxicity assay, organoids were digested into single cells. After centrifugation and washing, single cells were plated in 70 % BME and then added to 96-well plates (5 μ L/well). After that, 100 μ L organoid medium was added into the […]

[2] = system: normal oral and gastric organoids; type: cell-based, human
From the text: (§2) Toxicity tests on human organoid s. Organoids have been established in our lab.
(§3) Ethical approval of the study and the written consent/permission forms were obtained from Institutional Review Board (IRB) at Hunan N ormal University before the study commencement. For each patient, written permission form was reviewed and signed by themselves. According to the literature14,15, briefly, the tissue samples obtained from patients were removed excess fat or muscle tissues and cut into small fragments.
(§4) The fragments were washed thoroughly, then digested and centrifuged to obtain cell pellet. The resulting pellet was resuspended in ice-cold 70 % BME for incubating 15 min and then the organoid medium was added. The composition of oral and gastric organoid medium was as follows: […]
(§5) 50- AGGGTATCTAATCCT-30) and the final amplicon was quantified using a Qubit dsDNA assay kit (Life Technologies, California, United States). […]
(§6) The operational taxonomic units (OTUs) were generated using Vsearch software with a 97% similarity cutoff. The QIIME package and the RDP classifier (confidence threshold was 70%) were performed to select the representative read of each OTU and annotate and BLAST against the Silva database Version 123, respectively. […]

[3] = system: oral microbiota and gingival, palatal and gastric tissues; type: in vivo, Kuming mice; conditions: for H&E staining of gingival, palatal and gastric tissues / oral microbiota diversity / ecological balance (PCoA, Chao, Shannon) / abundance of top three phyla (Bacteroidetes, Firmicutes, Proteobacteria): 0.2%, 100 μL, once per day for 7 days; for oral microbiota diversity / ecological balance (PCoA, Chao, Shannon) / abundance of top three phyla (Bacteroidetes, Firmicutes, Proteobacteria): n = 8; for abundance of top three phyla (Bacteroidetes, Firmicutes, Proteobacteria): saliva on 8th day; for tooth staining: data not shown
From the text: Toxicity tests on mice. Furthermore, 35- 40 g fe male Kuming mice were also purchased from Slac & Jingda Corporation of laboratory animals, Changsha, China to systematically evaluate the toxicity of pHly -1 NPs to oral microflora and soft tissue in mice. All animals were randomly placed into three treatment groups, and pHly-1 NPs or CHX in aqueous solution was gradually added to mice mouth once a day for seven days. Considering the concentration of CHX used in clinic is usually 0.2 %, we determined that the concentration of the pHly -1 NPs rinsed mouse’s mouth is also 0.2 % and the volume was 100 μ L. At the 8th day, saliva was drawn for oral microbiome analysis, and gingival, palatal and gastric tissues were collected for histopathological […]
Oral flora 16S rRNA sequencing. Total genomic DNA of oral samples was extracted in OE Biotech Company (Shanghai, China) using a QIAamp DNA Stool Mini Kit (Qiagen, Germantown, MD, USA). Bacterial DNA was amplified with primers […]
targeting the V3- V4 regions (50- TACGGRAGGCAGCAG- 30,
50- AGGGTATCTAATCCT-30) and the final amplicon was quantified using a Qubit dsDNA assay kit (Life Technologies, California, United States). Equal amounts of purified amplicons were pooled for subsequent sequencing by the Illumina Nova 6000 platform (Illumina, USA) (Shanghai Oebiotech Co., Ltd., Shanghai, China). The raw data were treated and processed using the QIIME software package (version 1.8.0).
The operational taxonomic units (OTUs) were generated using Vsearch software with a 97% similarity cutoff. The QIIME package and the RDP classifier (confidence threshold was 70%) were performed to select the representative read of each OTU and annotate and BLAST against the Silva database Version 123, respectively.
Furthermore, the microbial diversity in oral samples was estimated by using the alpha diversity that include Chao1 and Shannon index. The bacterial diversity between groups was compared using the Wilcoxon rank sum test.

normal oral organoids = type: cell-based, human; conditions: 1 day
From the text: as §2, §3, §4, §5, §6

normal gastric organoids = type: cell-based, human; conditions: 1 day
From the text: as §2, §3, §4, §1
GlutaMAX,1×B27 supplement (Life Technologies), 50 ng/mL human EGF […]
as §5, §6

Compound | body weights vs control [1] | H&E staining of gingival, palatal and gastric tissues [1] | caries lesions on sulcal and smooth surfaces (Keyes' scoring, Larson's modification) vs control ([1]; topical 100 μM, 300 μL, pH 4.5, once per day, 35 days, n = 8) | concentration inducing organoid death or decreased viability [2] | H&E staining of gingival, palatal and gastric tissues [3] | oral microbiota diversity / ecological balance (PCoA, Chao, Shannon) [3] | abundance of top three phyla (Bacteroidetes, Firmicutes, Proteobacteria) [3] | tooth staining [3] | oral organoid death (normal oral organoids; 15.6 μM) | gastric organoids death (normal gastric organoids; 31.25 μM) | effect on both organoids [2] | effect on oral organoid viability (normal oral organoids; 500 μM) | effect on gastric organoid viability (normal gastric organoids; 500 μM)
[H]/N=C(\N/C(=N/[H])NCCCCCCNC(=N)NC(=N)Nc1ccc(Cl)cc1)Nc1ccc(Cl)cc1 [CHX, chlorhexidine] | No significant difference in body weights | no detectable signals for the harmful effect | alleviated severe lesions | ~ 20 μM | epithelial cell shedding and structural damage of gastric tissue | reduced the oral microbiota diversity | significantly increased the abundance of Firmicutes species | occasionally present | about 60% | about 40% |  |  | 
KIWFHAMHIIAHFIAHQHLHQHL-NH2 [pHly-1 NPs] | No significant difference in body weights | no detectable signals for the harmful effect |  |  | no visible signs of harmful effects | did not disrupt the ecological balance of the microbiota | did not affect their abundance | not observed |  |  | no apparent effect | no apparent viability decrease | no obvious effect

Reference: paper PMC9254247, “Dual-sensitive antibacterial peptide nanoparticles prevent dental caries” (Theranostics, 2022)
